For data set [1], the system named is CHO. Briefly: Genotoxicity in CHO cells assessed as mitotic inhibition at 0.31 ppm after 60 mins in dark followed by 5 W/m'2 UV irradiation for 30 mins. The class given is toxicity, cell-based, Cricetulus griseus. Conditions: chinese hamster, 0.5 h; call rule not given here.
The subject of data set [2] is CHO. Briefly: Genotoxicity in CHO cells assessed as chromosomal aberrations at 0.07 ppm after 60 mins in dark followed by 5 W/m'2 UV irradiation for 30 mins. The class given is toxicity, cell-based, Cricetulus griseus. Conditions: chinese hamster, 0.5 h.
In data set [3] the test system is CHO. Kind of data set: (§1) Genotoxicity in CHO cells assessed as mitotic inhibition at 0.62 ppm after 60 mins in dark followed by 5 W/m'2 UV irradiation for 30 mins. Conditions: chinese hamster, cho, 0.5 h. The class given is toxicity, cell-based, Cricetulus griseus.
For data set [4], the system named is Pseudomonas aeruginosa. Kind of data set: Phototoxicity against Pseudomonas aeruginosa at 100 ug/disk in dark. The class given is functional. Conditions: light or radiation study, read-out: IZ.
Data set [5] deals with Staphylococcus aureus. Kind of data set: Phototoxicity against Staphylococcus aureus at 100 ug/disk in dark. The class given is functional. Conditions: light or radiation study, read-out: IZ.
In data set [6] the test system is Bacillus subtilis. Briefly: Phototoxicity against Bacillus subtilis at 100 ug/disk after irradiation with W/m'2 UV light. It is filed as functional. Conditions: light or radiation study, read-out: IZ.
Data set [7] has as its system Enterococcus faecalis. Briefly: Phototoxicity against Streptococcus faecalis at 100 ug/disk after irradiation with W/m'2 UV light. Conditions: light or radiation study, read-out: IZ. It is filed as functional.
In data set [8] the test system is Staphylococcus aureus. Briefly: Phototoxicity against Staphylococcus aureus at 100 ug/disk after irradiation with W/m'2 UV light. It is filed as functional. Conditions: light or radiation study, read-out: IZ.
Data set [9] has as its system Candida albicans. Kind of data set: Phototoxicity against Candida albicans at 100 ug/disk after irradiation with W/m'2 UV light. The class given is functional. Conditions: light or radiation study, read-out: IZ.
Data set [10] relates to Pseudomonas fluorescens. Kind of data set: Phototoxicity against Pseudomonas fluorescens at 100 ug/disk after irradiation with W/m'2 UV light. The class given is functional. Conditions: light or radiation study, read-out: IZ.
The subject of data set [11] is Enterococcus faecalis. Kind of data set: Phototoxicity against Streptococcus faecalis at 100 ug/disk in dark. Conditions: light or radiation study, read-out: IZ. The class given is functional.
In data set [12] the test system is Candida albicans. Briefly: Phototoxicity against Candida albicans at 100 ug/disk in dark. The class given is functional. Conditions: light or radiation study, read-out: IZ.
Data set [13] deals with Saccharomyces cerevisiae. Briefly: Phototoxicity against Saccharomyces cerevisiae at 100 ug/disk in dark. The class given is functional. Conditions: light or radiation study, read-out: IZ.
Data set [14] relates to Saccharomyces cerevisiae. Kind of data set: Phototoxicity against Saccharomyces cerevisiae at 100 ug/disk after irradiation with W/m'2 UV light. Conditions: light or radiation study, read-out: IZ. It is filed as functional.
For data set [15], the system named is Pseudomonas aeruginosa. Briefly: Phototoxicity against Pseudomonas aeruginosa at 100 ug/disk after irradiation with W/m'2 UV light. The class given is functional. Conditions: light or radiation study, read-out: IZ.
Data set [16] relates to Pseudomonas fluorescens. Briefly: Phototoxicity against Pseudomonas fluorescens at 100 ug/disk in dark. It is filed as functional. Conditions: light or radiation study, read-out: IZ.
For data set [17], the system named is CHO. Briefly: Genotoxicity against CHO cells. Conditions: chinese hamster. It is filed as toxicity, cell-based, Cricetulus griseus.
Data set [18] concerns CHO. Kind of data set: Genotoxicity against CHO cells after UV irradiation. Conditions: chinese hamster. It is filed as toxicity, cell-based, Cricetulus griseus.
The test system of data set [19] is CHO. Kind of data set: Genotoxicity in CHO cells assessed as mitotic inhibition at 1.25 ppm after 60 mins in dark followed by 5 W/m'2 UV irradiation for 30 mins. It is filed as toxicity, cell-based, Cricetulus griseus. Conditions: chinese hamster, 0.5 h.
The nature of data set [20]: as §1. The class given is toxicity, cell-based, Cricetulus griseus. Conditions: chinese hamster, CHO cells; read-out: Activity.
Data set [21] relates to CHO. Kind of data set: Genotoxicity in CHO cells assessed as mitotic inhibition at 0.2 ppm after 60 mins in dark followed by 5 W/m'2 UV irradiation for 30 mins. The class given is toxicity, cell-based, Cricetulus griseus. Conditions: chinese hamster, 0.5 h.
Data set [22] has as its system Escherichia coli. Briefly: Phototoxicity against Escherichia coli at 10 ug/disk in dark. It is filed as functional. Conditions: light or radiation study, read-out: IZ.
The subject of data set [23] is Pseudomonas fluorescens. Kind of data set: Phototoxicity against Pseudomonas fluorescens at 10 ug/disk after irradiation with W/m'2 UV light. It is filed as functional. Conditions: light or radiation study, read-out: IZ.
The test system of data set [24] is Enterococcus faecalis. Kind of data set: Phototoxicity against Streptococcus faecalis at 10 ug/disk in dark. Conditions: light or radiation study, read-out: IZ. The class given is functional.
In data set [25] the test system is Candida albicans. Kind of data set: Phototoxicity against Candida albicans at 10 ug/disk after irradiation with W/m'2 UV light. The class given is functional. Conditions: light or radiation study, read-out: IZ.
The subject of data set [26] is Pseudomonas fluorescens. Briefly: Phototoxicity against Pseudomonas fluorescens at 10 ug/disk in dark. It is filed as functional. Conditions: light or radiation study, read-out: IZ.
In data set [27] the test system is Saccharomyces cerevisiae. Kind of data set: Phototoxicity against Saccharomyces cerevisiae at 10 ug/disk after irradiation with W/m'2 UV light. It is filed as functional. Conditions: light or radiation study, read-out: IZ.
Data set [28] has as its system CHO. Briefly: Genotoxicity in CHO cells assessed as chromosomal aberrations at 0.02 ppm after 60 mins in dark followed by 5 W/m'2 UV irradiation for 30 mins. Conditions: chinese hamster, 0.5 h. It is filed as toxicity, cell-based, Cricetulus griseus.
For data set [29], the system named is CHO. Kind of data set: Genotoxicity in CHO cells assessed as chromosomal aberrations at 0.1 ppm after 60 mins in dark followed by 5 W/m'2 UV irradiation for 30 mins. It is filed as toxicity, cell-based, Cricetulus griseus. Conditions: chinese hamster, 0.5 h.
The subject of data set [30] is Escherichia coli. Kind of data set: Phototoxicity against Escherichia coli at 10 ug/disk after irradiation with W/m'2 UV light. Conditions: light or radiation study, read-out: IZ. The class given is functional.
In data set [31] the test system is CHO. Briefly: Genotoxicity in CHO cells assessed as chromosomal aberrations at 0.04 ppm after 60 mins in dark followed by 5 W/m'2 UV irradiation for 30 mins. It is filed as toxicity, cell-based, Cricetulus griseus. Conditions: chinese hamster, 0.5 h.
For data set [32], the system named is Staphylococcus aureus. Briefly: Phototoxicity against Staphylococcus aureus at 10 ug/disk in dark. The class given is functional. Conditions: light or radiation study, read-out: IZ.
For data set [33], the system named is CHO. Briefly: Genotoxicity in CHO cells assessed as chromosomal aberrations at 0.3 ppm after 90 mins in dark. The class given is toxicity, cell-based, Cricetulus griseus. Conditions: chinese hamster, 1.5 h.
The test system of data set [34] is Pseudomonas aeruginosa. Kind of data set: Phototoxicity against Pseudomonas aeruginosa at 10 ug/disk after irradiation with W/m'2 UV light. The class given is functional. Conditions: light or radiation study, read-out: IZ.
Data set [35] concerns Candida albicans. Briefly: Phototoxicity against Candida albicans at 10 ug/disk in dark. The class given is functional. Conditions: light or radiation study, read-out: IZ.
Data set [36] relates to Pseudomonas aeruginosa. Briefly: Phototoxicity against Pseudomonas aeruginosa at 10 ug/disk in dark. Conditions: light or radiation study, read-out: IZ. The class given is functional.
Data set [37] relates to Staphylococcus aureus. Kind of data set: Phototoxicity against Staphylococcus aureus at 10 ug/disk after irradiation with W/m'2 UV light. The class given is functional. Conditions: light or radiation study, read-out: IZ.
Data set [38] relates to Bacillus subtilis. Kind of data set: Phototoxicity against Bacillus subtilis at 10 ug/disk in dark. The class given is functional. Conditions: light or radiation study, read-out: IZ.
In data set [39] the test system is Bacillus subtilis. Briefly: Phototoxicity against Bacillus subtilis at 10 ug/disk after irradiation with W/m'2 UV light. The class given is functional. Conditions: light or radiation study, read-out: IZ.
Data set [40] has as its system Enterococcus faecalis. Kind of data set: Phototoxicity against Streptococcus faecalis at 10 ug/disk after irradiation with W/m'2 UV light. It is filed as functional. Conditions: light or radiation study, read-out: IZ.
In data set [41] the test system is Saccharomyces cerevisiae. Briefly: Phototoxicity against Saccharomyces cerevisiae at 10 ug/disk in dark. The class given is functional. Conditions: light or radiation study, read-out: IZ.

Structures can show the parent of a compound that is named as a salt.

For `COc1ccc2[nH]c3c(c2c1)CCN=C3C`, the Activity result with CHO [1] is reported as “Active”; in the data set on CHO [2], 0%; in the data set on CHO [3] it was “Toxic”.
Regarding `CN1[C@@H]2CC[C@H]1C[C@@H](OC(=O)C(CO)c1ccccc1)C2` (some centres not stated) [ATROPINE SULFATE], the zone of inhibition at 100 µg/disc in the data set on Pseudomonas aeruginosa [4], in the data set on Staphylococcus aureus [5], with Bacillus subtilis [6], in the data set with Enterococcus faecalis [7], with Staphylococcus aureus [8] and in the data set on Candida albicans [9] was 0 mm in each case. The zone of inhibition at 100 µg/disc in the data set with Pseudomonas fluorescens [10], with Enterococcus faecalis [11], in the data set on Candida albicans [12], in the data set on Saccharomyces cerevisiae [13], with Saccharomyces cerevisiae [14] and with Pseudomonas aeruginosa [15] was 0 mm in each case. The zone of inhibition at 100 µg/disc in the data set on Pseudomonas fluorescens [16] amounted to 0 mm.
As for `CN1[C@@H]2CC[C@H]1C[C@@H](OC(=O)C(CO)c1ccccc1)C2` (some centres not stated) [ATROPINE], the Activity entry in the data set with CHO [17] and with CHO [18] was “Not Active” throughout.
With `COc1ccc2c3c([nH]c2c1)C(C)=NCC3` [HARMALINE], the outcome in the data set on CHO [19] and in the data set with CHO [3] was Active.
Take `Cc1nccc2c1[nH]c1ccccc12` [HARMANE HYDROCHLORIDE]: in data set [20], the inhibition at 0.5 h, 0.62 ppm was 0%.
Turning to `COc1c2occc2cc2ccc(=O)oc12` [METHOXSALEN], the Activity entry in the data set with CHO [21] is given as “Active”; in the data set on CHO [28] it was 7.1%; in the data set with CHO [29], 63.6%; in the data set with CHO [31], 38.8%; in the data set on CHO [33] it was 0%. Moreover, the zone of inhibition at 10 µg/disc in the data set with Escherichia coli [22] stood at 0 mm; in the data set on Pseudomonas fluorescens [23], 0 mm; with Enterococcus faecalis [24], 0 mm; with Candida albicans [25] it was 14 mm; in the data set with Pseudomonas fluorescens [26], 0 mm; with Saccharomyces cerevisiae [27], 19 mm. The zone of inhibition at 10 µg/disc in the data set on Escherichia coli [30] was found to be 14 mm; in the data set on Staphylococcus aureus [32], 0 mm; in the data set with Pseudomonas aeruginosa [34], 0 mm; in the data set with Candida albicans [35], 0 mm; with Pseudomonas aeruginosa [36], 0 mm; with Staphylococcus aureus [37] it was 18 mm. Further, the zone of inhibition at 10 µg/disc in the data set on Bacillus subtilis [38] is 0 mm; in the data set with Bacillus subtilis [39] it was 14 mm; in the data set on Enterococcus faecalis [40] it was 14 mm; with Saccharomyces cerevisiae [41], 0 mm.
